Measurements: patent US7981893B2, “Heteroaryl compounds, compositions thereof, and methods of treatment therewith” (Signal Pharmaceuticals, LLC, priority 2006, dated 2011)

target: T1, PKCθ (Homo sapiens, UniProt Q04759); assay: PKCθ IMAP Assay; type: biochemical; details: IMAP fluorescence polarization screening assay, 35 μM ATP
T1 construct: purchased Invitrogen
Description: The following is an example of an assay that can be used to determine the PKCθ inhibitory activity of a test compound. Reagents are prepared as follows:
Assay Buffer: 50 mM HEPES (pH 7.6), 10 mM MgCl, 0.1 mM EDTA, 5 mM MBP, 0.01% Triton, 1 mM DTT, 0.05 mg/ml phosphatidyl serine, 0.05 mg/ml diacylglycerol.
The final concentration of PKCθ (Invitrogen) is 0.5 nM. The final concentration of substrate (FAM-AKRRRLSSLRA) (Molecular Devices) is 100 nM. The final concentration of ATP in the reaction is 35 μM. The final concentration of DMSO in the reaction is 2.5%.
Enzyme is kept in 5 μl aliquots and stored at −80° C. prior to use. Test compound is allowed to pre-incubate with enzyme for 45 minutes before the reactions is initiated.
The reaction mixture consists of: 5 μl of test compound in 10% DMSO, 5 μl of 400 nM substrate (FAM-AKRRRLSSLRA), 5 μl of […] PKCθ, and 5 μl of 140 μM ATP (ATP is added to the reaction mixture last to initiate the reaction) per well.
The reaction is allowed to proceed for 60 minutes and is terminated by adding 30 μl per well of 90% Progressive A buffer/10% Progressive B buffer and a 1:400 dilution of binding beeds (Molecular Devices).
The reaction is given a binding incubation time of at least 30 minutes prior to reading the fluorescence polarization signal on an Analyst reader (the following detector settings are used: fluorescein excitation-485 nm, fluorescein emission-530 nm, fluorescein dichroic-505 nm).

T1 sequence (Q04759 whole entry): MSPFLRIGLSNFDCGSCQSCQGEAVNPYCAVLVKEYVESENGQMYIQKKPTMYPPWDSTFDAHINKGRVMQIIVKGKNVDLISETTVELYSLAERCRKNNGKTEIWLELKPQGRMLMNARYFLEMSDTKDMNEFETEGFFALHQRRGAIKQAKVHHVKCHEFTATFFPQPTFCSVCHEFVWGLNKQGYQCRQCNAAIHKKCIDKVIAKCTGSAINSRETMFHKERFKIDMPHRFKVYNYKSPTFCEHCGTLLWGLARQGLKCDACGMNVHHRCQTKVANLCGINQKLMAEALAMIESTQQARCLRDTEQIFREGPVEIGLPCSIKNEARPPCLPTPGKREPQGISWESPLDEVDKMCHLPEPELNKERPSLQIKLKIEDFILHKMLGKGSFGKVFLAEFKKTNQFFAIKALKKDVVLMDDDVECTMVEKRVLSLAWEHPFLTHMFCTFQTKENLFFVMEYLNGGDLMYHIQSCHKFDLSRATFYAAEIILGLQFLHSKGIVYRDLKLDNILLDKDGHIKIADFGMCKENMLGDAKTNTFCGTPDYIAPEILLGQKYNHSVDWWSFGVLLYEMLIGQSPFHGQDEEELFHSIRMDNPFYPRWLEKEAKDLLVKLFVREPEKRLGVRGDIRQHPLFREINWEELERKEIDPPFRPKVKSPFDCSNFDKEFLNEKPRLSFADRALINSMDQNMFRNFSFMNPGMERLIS

Row | SMILES | IC50 [µM]
1 | CC(C)[C@H](CO)n1c(=O)[nH]c2ncc(-c3ccccc3)nc21 [Compound 9, (R)-1-(1-hydroxy-3-methylbutan-2-yl)-6-phenyl-1H-imidazo[4,5-b]pyrazin-2(3H)-one] | > 30
2 | CC(c1ccccc1)n1c(=O)[nH]c2ncc(-c3ccc(NS(C)(=O)=O)cc3)nc21 (stereo not shown) [Compound 78, N-(4-(2-oxo-3-(1-phenylethyl)-2,3-dihydro-1H-imidazo[4,5-b]pyrazin-5-yl)phenyl)methanesulfonamide] | > 30
3 | CC(c1ccccc1)n1c(=O)[nH]c2ncc(-c3ccc(C(F)(F)F)cc3)nc21 (stereo not shown) [Compound 83, 1-(1-phenylethyl)-6-(4-(trifluoromethyl)phenyl)-1H-imidazo[4,5-b]pyrazin-2(3H)-one] | > 30
4 | CC(C)c1cccc(-c2cnc3[nH]c(=O)n(C(C)C)c3n2)c1 [Compound 37, 1-isopropyl-6-(3-isopropylphenyl)-1H-imidazo[4,5-b]pyrazin-2(3H)-one] | > 30
5 | CC[C@@H](c1ccccc1)n1c(=O)[nH]c2ncc(-c3cccc4ncccc34)nc21 [Compound 44, (S)-1-(1-phenylpropyl)-6-(quinolin-5-yl)-1H-imidazo[4,5-b]pyrazin-2(3H)-one] | > 30
6 | COc1ccc(C(C)C)cc1-c1cnc2[nH]c(=O)n(C3CCCCC3)c2n1 [Compound 19, 1-cyclohexyl-6-(5-isopropyl-2-methoxyphenyl)-1H-imidazo[4,5-b]pyrazin-2(3H)-one] | > 30
7 | COc1ccc(C(C)C)cc1-c1cnc2[nH]c(=O)n(CC(C)(C)C)c2n1 [Compound 36, 6-(5-isopropyl-2-methoxyphenyl)-1-neopentyl-1H-imidazo[4,5-b]pyrazin-2(3H)-one] | > 30
8 | C[C@@H](c1ccccc1)n1c(=O)n(C)c2ncc(-c3cccc4ncccc34)nc21 [Compound 49, (S)-1-methyl-3-(1-phenylethyl)-5-(quinolin-5-yl)-1H-imidazo[4,5-b]pyrazin-2(3H)-one] | > 30
9 | CC(C)[C@H](CO)n1c(=O)[nH]c2ncc(-c3cccc4ncccc34)nc21 [Compound 12, (R)-1-(1-hydroxy-3-methylbutan-2-yl)-6-(quinolin-5-yl)-1H-imidazo[4,5-b]pyrazin-2(3H)-one] | > 30
10 | COc1ccc(C(C)C)cc1-c1cnc2[nH]c(=O)n(C(C)C)c2n1 [Compound 18, 1-isopropyl-6-(5-isopropyl-2-methoxyphenyl)-1H-imidazo[4,5-b]pyrazin-2(3H)-one] | 5.1 to 10
11 | COc1ccc(C(C)C)cc1-c1ccc2[nH]c(=O)n([C@H](CO)C(C)C)c2n1 [Compound 39, (S)-3-(1-hydroxy-3-methylbutan-2-yl)-5-(5-isopropyl-2-methoxyphenyl)-1H-imidazo[4,5-b]pyridin-2(3H)-one] | > 30
12 | C[C@H](c1ccccc1)n1c(=O)[nH]c2nccnc21 [Compound 16, (R)-1-(1-phenylethyl)-1H-imidazo[4,5-b]pyrazin-2(3H)-one] | > 30
13 | CC(c1cccnc1)n1c(=O)[nH]c2ncc(-c3cccc4ncccc34)nc21 (stereo not shown) [Compound 76, 1-(1-(pyridin-3-yl)ethyl)-6-(quinolin-5-yl)-1H-imidazo[4,5-b]pyrazin-2(3H)-one] | 5.1 to 10
14 | COc1ccc(C(C)C)cc1-c1cnc2[nH]c(=O)n(CCO)c2n1 [Compound 22, 1-(2-hydroxyethyl)-6-(5-isopropyl-2-methoxyphenyl)-1H-imidazo[4,5-b]pyrazin-2(3H)-one] | > 30
15 | C[C@H](c1ccccc1)n1c(=O)[nH]c2ncc(-c3cccc4ncccc34)cc21 [Compound 62, (R)-1-(1-phenylethyl)-6-(quinolin-5-yl)-1H-imidazo[4,5-b]pyridin-2(3H)-one] | > 30
16 | COc1ccc(C(C)C)cc1-c1cnc2[nH]c(=O)n(CC3CCCCC3)c2n1 [Compound 35, 1-(cyclohexylmethyl)-6-(5-isopropyl-2-methoxyphenyl)-1H-imidazo[4,5-b]pyrazin-2(3H)-one] | > 30
17 | C[C@H](c1ccccc1)n1c(=O)[nH]c2ncc(-c3cccc4ccccc34)nc21 [Compound 3, (R)-6-(naphthalen-1-yl)-1-(1-phenylethyl)-1H-imidazo[4,5-b]pyrazin-2(3H)-one] | > 30
18 | CC(c1ccccc1)n1c(=O)[nH]c2ncc(-c3cccc4ncccc34)nc21 (stereo not shown) [Compound 42, 1-(1-phenylethyl)-6-(quinolin-5-yl)-1H-imidazo[4,5-b]pyrazin-2(3H)-one] | 0.1 to 5
19 | C[C@@H](c1ccccc1)n1c(=O)[nH]c2ncc(-c3cccc4ccccc34)nc21 [Compound 7, (S)-6-(naphthalen-1-yl)-1-(1-phenylethyl)-1H-imidazo[4,5-b]pyrazin-2(3H)-one] | > 30

Row | SMILES | IC50 [µM]
20 | O=c1[nH]c2ncc(-c3cccc4ncccc34)nc2[nH]1 [Compound 20, 5-(quinolin-5-yl)-1H-imidazo[4,5-b]pyrazin-2(3H)-one] | > 30
21 | CC(c1ccncc1)n1c(=O)[nH]c2ncc(-c3cccc4ncccc34)nc21 (stereo not shown) [Compound 67, 1-(1-(pyridin-4-yl)ethyl)-6-(quinolin-5-yl)-1H-imidazo[4,5-b]pyrazin-2(3H)-one] | 20.1 to 30
22 | CC(c1ccccc1)n1c(=O)[nH]c2ncc(-c3cccc4ncccc34)cc21 (stereo not shown) [Compound 63, 1-(1-phenylethyl)-6-(quinolin-5-yl)-1H-imidazo[4,5-b]pyridin-2(3H)-one] | > 30
23 | CC(c1ccccn1)n1c(=O)[nH]c2ncc(-c3cccc4ncccc34)nc21 (stereo not shown) [Compound 75, 1-(1-(pyridin-2-yl)ethyl)-6-(quinolin-5-yl)-1H-imidazo[4,5-b]pyrazin-2(3H)-one] | 10.1 to 20
24 | O=c1[nH]c2ncc(-c3cccc4ncccc34)nc2n1C1CCC(CO)CC1 (stereo not shown) [Compound 77, 1-((1s,4s)-4-(hydroxymethyl)cyclohexyl)-6-(quinolin-5-yl)-1H-imidazo[4,5-b]pyrazin-2(3H)-one] | 20.1 to 30
25 | COc1ccc(C(C)C)cc1-c1cnc2[nH]c(=O)n([C@H]3CCOC3)c2n1 [Compound 29, (S)-6-(5-isopropyl-2-methoxyphenyl)-1-(tetrahydrofuran-3-yl)-1H-imidazo[4,5-b]pyrazin-2(3H)-one] | > 30
26 | COc1ccc(C(C)C)cc1-c1cnc2[nH]c(=O)n(CC3CCCC3)c2n1 [Compound 34, 1-(cyclopentylmethyl)-6-(5-isopropyl-2-methoxyphenyl)-1H-imidazo[4,5-b]pyrazin-2(3H)-one] | > 30
27 | O=c1[nH]c2ncc(-c3cccc4ncccc34)nc2n1CC1CCNCC1 [Compound 74, 1-(piperidin-4-ylmethyl)-6-(quinolin-5-yl)-1H-imidazo[4,5-b]pyrazin-2(3H)-one] | > 30
28 | O=c1[nH]c2ncc(-c3cccc4ncccc34)nc2n1C(c1ccccc1)c1ccccc1 [Compound 43, 1-benzhydryl-6-(quinolin-5-yl)-1H-imidazo[4,5-b]pyrazin-2(3H)-one] | > 30
29 | COc1ccc(C(C)C)cc1-c1cnc2[nH]c(=O)n(CC3CC3)c2n1 [Compound 33, 1-(cyclopropylmethyl)-6-(5-isopropyl-2-methoxyphenyl)-1H-imidazo[4,5-b]pyrazin-2(3H)-one] | > 30
30 | COc1ccc(C(C)C)cc1-c1cnc2[nH]c(=O)n(CC(C)C)c2n1 [Compound 21, 1-isobutyl-6-(5-isopropyl-2-methoxyphenyl)-1H-imidazo[4,5-b]pyrazin-2(3H)-one] | > 30
31 | COc1ccccc1-c1cnc2[nH]c(=O)n(C(C)C)c2n1 [Compound 38, 1-isopropyl-6-(2-methoxyphenyl)-1H-imidazo[4,5-b]pyrazin-2(3H)-one] | > 30
32 | COc1ccc(C(C)C)cc1-c1cnc2[nH]c(=O)n(C3CCCC3)c2n1 [Compound 31, 1-cyclopentyl-6-(5-isopropyl-2-methoxyphenyl)-1H-imidazo[4,5-b]pyrazin-2(3H)-one] | > 30
33 | COc1ccc(C(C)C)cc1-c1cnc2[nH]c(=O)n(C3CCCOC3)c2n1 (stereo not shown) [Compound 46, 6-(5-isopropyl-2-methoxyphenyl)-1-(tetrahydro-2H-pyran-3-yl)-1H-imidazo[4,5-b]pyrazin-2(3H)-one] | 10.1 to 20
34 | C[C@@H](c1ccccc1)n1c(=O)[nH]c2nccnc21 [Compound 17, (S)-1-(1-phenylethyl)-1H-imidazo[4,5-b]pyrazin-2(3H)-one] | > 30
35 | COc1ccc(C(C)C)cc1-c1cnc2[nH]c(=O)n([C@@H]3CCOC3)c2n1 [Compound 32, (R)-6-(5-isopropyl-2-methoxyphenyl)-1-(tetrahydrofuran-3-yl)-1H-imidazo[4,5-b]pyrazin-2(3H)-one] | 10.1 to 20
36 | COc1ccc(C(C)C)cc1-c1cnc2[nH]c(=O)n(C3CCOCC3)c2n1 [Compound 23, 6-(5-isopropyl-2-methoxyphenyl)-1-(tetrahydro-2H-pyran-4-yl)-1H-imidazo[4,5-b]pyrazin-2(3H)-one] | > 30
37 | CC(c1ccc(S(C)(=O)=O)cc1)n1c(=O)[nH]c2ncc(-c3cccc4ncccc34)nc21 (stereo not shown) [Compound 66, 1-(1-(4-(methylsulfonyl)phenyl)ethyl)-6-(quinolin-5-yl)-1H-imidazo[4,5-b]pyrazin-2(3H)-one] | > 30
